The source made the active and inactive calls.
Columns and labels:
[1] = biological target: T1, Small ubiquitin-related modifier 2 (Homo sapiens, UniProt P61956); assay: disruption of SUMO2 interaction with SIM peptide – biochemical, fluorescence polarization, uHTS hits, selectivity assay for SUMO1 interaction inhibitor project, dose response (AID 624385); format: functional; details: read-out: IC50_Mean
ORF 73 = ORF 73 (Human herpesvirus 8, UniProt O40947); assay: KSHV LANA DNA-binding disruption – biochemical, fluorescence polarization, cherry-picked samples, dose response (AID 504725); design: species or system Human gammaherpesvirus 8;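 also: fluorescence polarization of a labeled DNA duplex reporting LANA DNA binding; potency is for inhibitors that block LANA binding to the DNA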
[2] = biological target: Intestinal-type alkaline phosphatase (Homo sapiens, UniProt P09923); assay: activation of human intestinal alkaline phosphatase – biochemical, dose response (AID 488873); format: functional
[3] = biological target: Induced myeloid leukemia cell differentiation protein Mcl-1 (Homo sapiens, UniProt Q07820); format: functional
[4] = biological target: T2, Small ubiquitin-related modifier 1 (Homo sapiens, UniProt P63165); assay: SUMO1 protein-protein binding blockers, potency – biochemical, FRET, dose response (AID 624383); format: functional; details: read-out: IC50_Mean
Large T antigen = Large T antigen (Simian virus 40, UniProt P03070); format: functional, Betapolyomavirus macacae;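 also: Confirmatory-stage PubChem screen for compounds that inhibit SV40 T antigen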
[5] = biological target: T3, Alkaline phosphatase, tissue-nonspecific isozyme (Homo sapiens, UniProt P05186); assay: TNAP enzyme inhibition by screening hits, dose response, selectivity assay for mouse IAP inhibitor project, biochemical, human TNAP, uHTS hits (AID 488906); format: functional
T3 sequence (P05186 whole entry): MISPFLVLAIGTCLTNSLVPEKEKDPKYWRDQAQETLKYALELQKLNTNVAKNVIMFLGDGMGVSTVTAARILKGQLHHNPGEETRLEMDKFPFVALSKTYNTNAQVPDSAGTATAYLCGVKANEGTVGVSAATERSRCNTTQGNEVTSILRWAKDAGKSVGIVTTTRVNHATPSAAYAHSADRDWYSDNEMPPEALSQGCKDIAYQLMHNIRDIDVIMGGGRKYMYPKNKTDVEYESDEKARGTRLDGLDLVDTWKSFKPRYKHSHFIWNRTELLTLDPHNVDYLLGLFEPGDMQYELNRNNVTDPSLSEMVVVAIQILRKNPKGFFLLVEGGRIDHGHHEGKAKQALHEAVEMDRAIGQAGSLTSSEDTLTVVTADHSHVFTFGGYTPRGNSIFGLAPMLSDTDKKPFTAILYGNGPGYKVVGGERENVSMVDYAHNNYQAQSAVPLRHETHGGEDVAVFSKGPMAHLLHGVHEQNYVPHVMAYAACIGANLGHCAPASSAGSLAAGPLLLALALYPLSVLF

[6] = biological target: T4, DNA dC->dU-editing enzyme APOBEC-3A (Homo sapiens, UniProt P31941); assay: SAR analysis of small molecule inhibitors of APOBEC3A DNA Deaminase via a fluorescence-based single-stranded DNA deaminase assay.; format: functional; details: read-out: IC50_Mean
[7] = biological target: Eukaryotic translation initiation factor 4E (Mus musculus, UniProt P63073); assay: blockers of eIF4G binding by eIF4E – biochemical, TR-FRET, dose response (AID 855); format: functional;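 also: potency for disrupting eIF4E binding to eIF4GI seen as loss of FRET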
[8] = biological target: T5, Histone-lysine N-methyltransferase NSD2 (Homo sapiens, UniProt O96028); format: biochemical
T5 sequence (O96028 whole entry): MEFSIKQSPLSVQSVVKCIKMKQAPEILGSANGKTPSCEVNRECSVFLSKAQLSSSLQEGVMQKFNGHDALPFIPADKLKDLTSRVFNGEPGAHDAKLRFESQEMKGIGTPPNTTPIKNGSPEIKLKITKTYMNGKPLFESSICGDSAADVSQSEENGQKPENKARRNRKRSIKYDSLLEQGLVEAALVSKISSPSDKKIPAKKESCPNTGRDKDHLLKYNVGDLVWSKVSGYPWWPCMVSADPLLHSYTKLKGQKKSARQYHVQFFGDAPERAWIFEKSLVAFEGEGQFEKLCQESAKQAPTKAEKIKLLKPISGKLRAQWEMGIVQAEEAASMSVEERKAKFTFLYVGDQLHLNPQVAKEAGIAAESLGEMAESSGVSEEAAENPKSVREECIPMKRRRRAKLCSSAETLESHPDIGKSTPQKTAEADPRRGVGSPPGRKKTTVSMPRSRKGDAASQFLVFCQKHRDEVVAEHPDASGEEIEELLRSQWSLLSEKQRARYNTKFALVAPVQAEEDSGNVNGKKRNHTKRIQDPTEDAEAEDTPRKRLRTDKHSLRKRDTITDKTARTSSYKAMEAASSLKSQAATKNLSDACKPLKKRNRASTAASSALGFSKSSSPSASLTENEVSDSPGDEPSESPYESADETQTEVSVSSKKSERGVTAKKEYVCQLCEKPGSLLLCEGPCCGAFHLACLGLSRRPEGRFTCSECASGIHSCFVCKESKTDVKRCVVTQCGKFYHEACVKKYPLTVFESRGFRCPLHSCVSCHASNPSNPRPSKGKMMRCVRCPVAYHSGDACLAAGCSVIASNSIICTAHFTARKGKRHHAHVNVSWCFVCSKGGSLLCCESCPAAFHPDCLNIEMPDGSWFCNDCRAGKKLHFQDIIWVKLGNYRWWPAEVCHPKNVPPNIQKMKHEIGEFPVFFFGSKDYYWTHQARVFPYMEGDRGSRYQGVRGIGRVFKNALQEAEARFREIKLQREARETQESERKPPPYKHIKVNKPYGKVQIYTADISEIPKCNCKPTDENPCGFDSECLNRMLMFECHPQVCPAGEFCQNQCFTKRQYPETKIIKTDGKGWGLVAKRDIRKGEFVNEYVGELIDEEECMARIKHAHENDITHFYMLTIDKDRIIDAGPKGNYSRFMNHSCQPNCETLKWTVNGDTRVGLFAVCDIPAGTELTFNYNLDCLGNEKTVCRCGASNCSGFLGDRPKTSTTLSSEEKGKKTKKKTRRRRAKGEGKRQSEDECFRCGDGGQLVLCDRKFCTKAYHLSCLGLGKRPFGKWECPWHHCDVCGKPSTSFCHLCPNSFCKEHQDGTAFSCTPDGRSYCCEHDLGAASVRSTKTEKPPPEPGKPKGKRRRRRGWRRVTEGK

[9] = biological target: T1, Small ubiquitin-related modifier 2; assay: SUMO2 binding disruption by SUMO1 hits – biochemical, FRET, human SUMO2, uHTS hits, selectivity assay for SUMO1 interaction inhibitor project, dose response (AID 624384); format: functional; details: read-out: IC50_Mean
HeLa = assay: viability loss in HeLa cells – cell-based, 24 h, cherry-picked samples, cytotoxicity control, dose response (AID 504726); format: functional; details: Homo sapiens;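 also: potency for cytotoxicity as loss of luminescence signal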
[10] = biological target: T4, DNA dC->dU-editing enzyme APOBEC-3A; assay: SAR analysis of small molecule inhibitors of APOBEC3A DNA Deaminase via a fluorescence-based single-stranded DNA deaminase assay - Set 2.; format: functional; details: read-out: IC50_Mean
[11] = biological target: T2, Small ubiquitin-related modifier 1; assay: SUMO1 protein interaction blockers, potency – biochemical, fluorescence polarization, uHTS hits, dose response (AID 624382); format: functional; details: read-out: IC50_Mean
[12] = biological target: T6, DNA dC->dU-editing enzyme APOBEC-3G (Homo sapiens, UniProt Q9HC16); assay: SAR analysis of small molecule inhibitors of APOBEC3G DNA Deaminase via a fluorescence-based single-stranded DNA deaminase assay - Set 2.; format: functional; details: read-out: IC50_Mean
[13] = biological target: Intestinal-type alkaline phosphatase (Mus musculus, UniProt P24822); assay: PubChem AID 488785; format: functional
[14] = biological target: T6, DNA dC->dU-editing enzyme APOBEC-3G; assay: inhibition of APOBEC3G ssDNA deamination – biochemical, fluorescence, single-stranded DNA substrate, SAR follow-up (AID 602136); format: functional; details: read-out: IC50_Mean

T1 sequence (P61956 whole entry): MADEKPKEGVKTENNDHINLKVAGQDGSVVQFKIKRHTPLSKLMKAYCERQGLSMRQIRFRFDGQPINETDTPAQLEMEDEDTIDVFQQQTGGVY
T4 sequence (P31941 whole entry): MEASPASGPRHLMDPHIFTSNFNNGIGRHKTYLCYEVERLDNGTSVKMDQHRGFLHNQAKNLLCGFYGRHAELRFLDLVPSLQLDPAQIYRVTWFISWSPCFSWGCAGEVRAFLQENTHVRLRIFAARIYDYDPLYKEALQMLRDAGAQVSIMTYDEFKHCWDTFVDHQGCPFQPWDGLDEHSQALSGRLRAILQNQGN
T6 sequence (Q9HC16 whole entry): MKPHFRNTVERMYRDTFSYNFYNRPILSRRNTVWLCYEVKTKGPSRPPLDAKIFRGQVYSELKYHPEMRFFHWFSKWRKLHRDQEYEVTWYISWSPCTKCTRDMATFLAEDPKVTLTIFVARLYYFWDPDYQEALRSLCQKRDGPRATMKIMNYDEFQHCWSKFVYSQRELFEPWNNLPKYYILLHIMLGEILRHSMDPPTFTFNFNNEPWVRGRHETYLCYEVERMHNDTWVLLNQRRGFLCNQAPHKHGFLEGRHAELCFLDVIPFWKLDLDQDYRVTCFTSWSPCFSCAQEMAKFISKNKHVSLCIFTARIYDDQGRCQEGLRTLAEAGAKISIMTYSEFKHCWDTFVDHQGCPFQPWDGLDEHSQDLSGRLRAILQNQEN
T2 sequence (P63165 whole entry): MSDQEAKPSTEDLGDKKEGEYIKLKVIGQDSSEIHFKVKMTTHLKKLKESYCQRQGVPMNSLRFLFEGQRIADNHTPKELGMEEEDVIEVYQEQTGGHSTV
Large T antigen, sequence (P03070 whole entry): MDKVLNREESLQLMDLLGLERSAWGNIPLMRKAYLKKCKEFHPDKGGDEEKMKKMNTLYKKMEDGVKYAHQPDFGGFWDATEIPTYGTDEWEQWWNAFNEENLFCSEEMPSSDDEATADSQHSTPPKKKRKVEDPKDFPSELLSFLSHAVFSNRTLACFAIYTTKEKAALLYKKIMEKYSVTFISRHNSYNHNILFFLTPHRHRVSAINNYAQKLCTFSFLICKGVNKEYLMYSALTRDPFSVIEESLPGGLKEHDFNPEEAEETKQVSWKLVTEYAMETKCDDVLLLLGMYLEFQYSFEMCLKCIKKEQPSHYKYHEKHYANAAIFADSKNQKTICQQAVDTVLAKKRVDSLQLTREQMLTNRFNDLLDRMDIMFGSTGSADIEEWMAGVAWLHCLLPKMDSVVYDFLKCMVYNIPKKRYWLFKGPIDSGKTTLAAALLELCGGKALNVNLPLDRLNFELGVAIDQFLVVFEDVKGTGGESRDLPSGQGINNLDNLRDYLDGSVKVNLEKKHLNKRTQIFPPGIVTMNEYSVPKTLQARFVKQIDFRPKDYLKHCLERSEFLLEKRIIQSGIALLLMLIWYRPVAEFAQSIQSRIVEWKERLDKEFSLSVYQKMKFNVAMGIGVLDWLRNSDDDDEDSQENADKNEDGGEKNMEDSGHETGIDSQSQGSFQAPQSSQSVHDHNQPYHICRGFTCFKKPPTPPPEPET
Induced myeloid leukemia cell differentiation protein Mcl-1, sequence (Q07820 whole entry): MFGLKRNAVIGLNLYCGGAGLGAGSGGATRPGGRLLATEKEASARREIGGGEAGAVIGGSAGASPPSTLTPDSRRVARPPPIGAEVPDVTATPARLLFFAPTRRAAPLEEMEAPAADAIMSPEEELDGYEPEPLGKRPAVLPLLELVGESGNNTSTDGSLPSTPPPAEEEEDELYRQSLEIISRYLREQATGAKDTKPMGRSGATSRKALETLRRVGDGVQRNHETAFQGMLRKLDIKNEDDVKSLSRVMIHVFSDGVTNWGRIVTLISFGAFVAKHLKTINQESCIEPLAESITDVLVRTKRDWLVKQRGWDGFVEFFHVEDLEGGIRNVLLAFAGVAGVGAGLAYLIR
Intestinal-type alkaline phosphatase (Mus musculus, UniProt P24822), sequence (P24822 whole entry): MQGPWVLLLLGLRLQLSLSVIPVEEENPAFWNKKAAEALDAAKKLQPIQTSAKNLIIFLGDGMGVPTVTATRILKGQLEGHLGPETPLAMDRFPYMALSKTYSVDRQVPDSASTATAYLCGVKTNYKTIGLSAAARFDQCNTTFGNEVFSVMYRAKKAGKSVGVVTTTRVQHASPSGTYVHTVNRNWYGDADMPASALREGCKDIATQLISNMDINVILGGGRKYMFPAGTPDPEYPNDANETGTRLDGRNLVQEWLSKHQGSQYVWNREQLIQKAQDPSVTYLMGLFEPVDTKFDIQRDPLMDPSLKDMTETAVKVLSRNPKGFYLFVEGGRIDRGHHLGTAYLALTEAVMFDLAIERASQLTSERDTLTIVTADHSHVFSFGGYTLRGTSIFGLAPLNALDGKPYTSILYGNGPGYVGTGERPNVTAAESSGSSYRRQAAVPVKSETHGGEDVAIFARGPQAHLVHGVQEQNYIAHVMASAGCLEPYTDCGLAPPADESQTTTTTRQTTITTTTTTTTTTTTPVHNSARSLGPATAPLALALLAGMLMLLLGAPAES
ORF 73, sequence (O40947 whole entry): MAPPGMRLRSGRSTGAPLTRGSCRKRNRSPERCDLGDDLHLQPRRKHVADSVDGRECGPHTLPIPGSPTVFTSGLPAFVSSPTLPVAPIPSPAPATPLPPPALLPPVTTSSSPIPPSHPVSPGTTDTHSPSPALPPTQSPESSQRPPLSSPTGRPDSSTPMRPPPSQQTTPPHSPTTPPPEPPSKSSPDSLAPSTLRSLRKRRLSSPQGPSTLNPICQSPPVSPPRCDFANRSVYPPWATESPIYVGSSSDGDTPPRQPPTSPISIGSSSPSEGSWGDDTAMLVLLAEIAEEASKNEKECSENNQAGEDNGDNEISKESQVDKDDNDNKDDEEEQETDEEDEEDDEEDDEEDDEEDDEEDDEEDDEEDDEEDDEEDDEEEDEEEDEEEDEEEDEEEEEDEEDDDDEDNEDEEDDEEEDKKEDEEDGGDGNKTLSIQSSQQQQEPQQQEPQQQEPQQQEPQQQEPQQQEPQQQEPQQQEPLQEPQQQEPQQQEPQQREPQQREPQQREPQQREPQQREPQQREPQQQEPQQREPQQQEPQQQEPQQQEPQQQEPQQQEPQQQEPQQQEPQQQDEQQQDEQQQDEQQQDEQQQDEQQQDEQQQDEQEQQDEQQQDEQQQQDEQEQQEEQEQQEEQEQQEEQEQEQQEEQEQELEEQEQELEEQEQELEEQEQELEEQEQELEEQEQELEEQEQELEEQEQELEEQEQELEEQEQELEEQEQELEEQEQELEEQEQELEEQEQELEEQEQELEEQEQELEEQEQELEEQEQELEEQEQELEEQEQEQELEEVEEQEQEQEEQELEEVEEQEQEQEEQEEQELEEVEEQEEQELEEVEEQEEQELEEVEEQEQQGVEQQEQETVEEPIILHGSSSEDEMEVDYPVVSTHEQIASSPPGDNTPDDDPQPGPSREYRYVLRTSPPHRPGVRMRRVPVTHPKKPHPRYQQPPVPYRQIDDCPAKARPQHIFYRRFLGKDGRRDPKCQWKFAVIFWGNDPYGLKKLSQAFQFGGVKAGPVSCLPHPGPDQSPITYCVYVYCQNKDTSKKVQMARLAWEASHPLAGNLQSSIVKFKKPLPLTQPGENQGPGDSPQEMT
Intestinal-type alkaline phosphatase (Homo sapiens, UniProt P09923), sequence (P09923 whole entry): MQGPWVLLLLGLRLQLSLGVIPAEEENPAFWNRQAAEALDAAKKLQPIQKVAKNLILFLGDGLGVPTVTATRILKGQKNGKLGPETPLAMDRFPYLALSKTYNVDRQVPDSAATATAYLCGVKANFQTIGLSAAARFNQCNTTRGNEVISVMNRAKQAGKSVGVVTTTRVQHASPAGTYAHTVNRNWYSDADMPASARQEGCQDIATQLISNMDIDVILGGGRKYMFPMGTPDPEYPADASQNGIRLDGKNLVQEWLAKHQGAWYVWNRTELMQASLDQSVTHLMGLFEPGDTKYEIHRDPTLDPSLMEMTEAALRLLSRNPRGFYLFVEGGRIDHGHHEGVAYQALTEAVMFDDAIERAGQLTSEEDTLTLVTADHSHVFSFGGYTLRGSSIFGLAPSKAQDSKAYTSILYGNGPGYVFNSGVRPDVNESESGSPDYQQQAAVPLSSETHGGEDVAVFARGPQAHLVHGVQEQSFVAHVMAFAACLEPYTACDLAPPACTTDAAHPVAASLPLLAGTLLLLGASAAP
Eukaryotic translation initiation factor 4E, sequence (P63073 whole entry): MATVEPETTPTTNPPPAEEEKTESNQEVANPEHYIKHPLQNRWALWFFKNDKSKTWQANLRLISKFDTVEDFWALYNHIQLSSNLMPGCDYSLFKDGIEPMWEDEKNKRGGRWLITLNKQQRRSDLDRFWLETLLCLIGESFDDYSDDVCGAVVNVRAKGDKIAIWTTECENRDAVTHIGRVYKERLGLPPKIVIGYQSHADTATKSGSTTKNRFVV

**Q.** Which results are given for `CC(=O)c1ccc2c(c1)C1C=CCC1C(C(=O)O)N2` (configuration not stated)?
**A.** IC50 [1]: 4.87 µM (active); AC50 (ORF 73): 15 µM (active); EC50 [2]: > 100 µM (inactive); IC50 [3]: 5.11 µM (active); IC50 [4]: 4.9 µM (active); IC50 (Large T antigen): 50.6 µM (active); IC50 [5]: 78.5 µM (active); IC50 [6]: 5.37 µM (active); IC50 [7]: 50 µM (inactive); AC50 [8]: 1.45 µM (active); IC50 [9]: 1.45 µM (active); AC50 (HeLa): 277 µM (active); IC50 [10]: 2.32 µM (active); IC50 [11]: 10.9 µM (active); IC50 [12]: 0.989 µM (active); IC50 [13]: 6.61 µM (active); IC50 [14]: 5.03 µM (active)

Source: ChEMBL document CHEMBL1201862, “PubChem BioAssay data set” (2004)
